These results are taken from patent US20240182526A1, “COMPOSITIONS AND METHODS FOR MODULTING INFLAMMATORY AND DEGENERATIVE DISORDER” (University of Southern California, priority 2021, published 2024).

“Also recorded” adds a separate entry of the source.

The subject of assay [1] is mouse skin excisional wound. The assay is described as follows: Wound-induced hair neogenesis (WIHN) assay, skin excisional wound. Type of assay: in vivo. The procedure:
Single-cell sequencing using 10× Genomics. Single cell samples were prepared using Next GEM Single Cell 5′ v2 (dual index) and Chip Kit (10× Genomics) according to the manufacturer's protocol. Briefly samples were FACS sorted using DAPI to select live cells followed by resuspension in 0.04% BSA-PBS. Nearly 1200 cells/μl were added to each well of the chip with a target cell recovery estimate of 10000 cells. Thereafter Gel bead-in Emulsions (GEMs) were generated using GemCode Single-Cell Instrument. GEMs were reverse transcribed, droplets were broken and single stranded cDNA was isolated. cDNAs were cleaned up with DynaBeads and amplified. Finally, cDNAs were ligated with adapters, post-ligation products were amplified, cleaned-up with SPRIselect and purified libraries were sequenced on Novaseq.
Wound-induced hair neogenesis assay. The WHIN assay was previously described. Briefly, a 1.5×1.5 cm square full thickness wound was excised on the posterior dorsum of 6-week-oldf mice, and observed for hair neogenesis and wound histology. Mice were anesthetized using isofluorane, full thickness skin was excised, and analgesic Buprenorphine SR (0.5 mg/kg) was given by intraperitoneal injection (IP) at the beginning of the procedure. Additional DietGel Boost (ClearH2O) was placed on the bottom of the cage during the first week post-operation. For R805-treatment, R805 (10 μM or 20 μM) was applied topically to the wound of WT mice.
Alkaline phosphatase (ALP) stain. To detect newly forming dermal papillae, alkaline phosphatase staining was performed as previously reported. Briefly, full thickness wounds were excised and epidermis separated from the dermis using 20 mM EDTA. The dermis was fixed in acetone overnight at 4° C., and washed in PBS several times. The dermis was pre-incubated in ALP buffer (0.1 M Tris-HCl, 0.1 M NaCl, 5 mM MgCl2 and 0.1% Tween-20) for 30 min, incubated with BCIP/NBT Color Development Substrate (Promega, Madison, WI, USA) in ALP buffer at 37° C. until color development. The reaction was stopped by washing with pH 8.0 Tris-EDTA and the tissue stored in PBS with sodium azide. 5 wounds were calculated for each strain of mice.
Hair fiber length quantification. To quantify regenerated hair fiber length, hair fibers from respective wounds were plucked, aligned and photographed next to a ruler under the dissecting microscope. The length of the hair fibers was measured and analyzed using ImageJ. 3-4 hairs were randomly plucked from each wound and analyzed.

For assay [2], the system named is cleaved ACAN and COL2 neoepitopes. The assay can be described thus: Neoepitope assay on pig articular cartilage explants stimulated with OSM. In kind it is cell-based. The settings on record: 72 hours, normalized to wet weight. The procedure:
Neoepitope analysis. WT and F814 mouse articular cartilage explants were treated with or without OSM (10 ng/mL). Pig articular cartilage explants were stimulated with or without OSM (10 ng/mL) and treated with or without peptide QQpYF (100 μg/mL or 300 μg/mL). For R805 treatment, pig articular cartilage explants were stimulated with or without OSM (10 ng/mL) and treated with or without R805 (0.01, 0.1, 1 or 10 μM). The explants were then digested for 2 hr at 37° C. with 0.01 units chondroitinase ABC (Sigma Aldrich, St. Louis, MO). Samples were then dialyzed with ultrapure water for 24 hr at 4° C., freeze dried, dissolved in RIPA Lysis and Extraction Buffer (Pierce, IL) containing protease inhibitors (Pierce) followed by sonication. Proteins were separated and analyzed by Western blot using primary antibodies against aggrecan (cat #NB100-74350, Novus Biologicals,) and collagen II neoepitopes (cat #50-1035, Ibex). Wet weight of explants was used as loading control.

In assay [3] the test system is pro-inflammatory signaling in osteoarthritic chondrocytes. The assay can be described thus: Western blot of pro-inflammatory signaling proteins in osteoarthritic chondrocytes. Type of assay: cell-based, human. As to conditions: 4 and 24 hours. On the procedure: For standard western blot, treated and non-treated cells were lysed in RIPA Lysis and Extraction Buffer (Pierce, Rockford, IL) containing protease inhibitors (Pierce) followed by sonication with a 15-second pulse at a power output of 2 using the VirSonic 100 (SP Industries Company, Warminster, PA). Protein concentrations were determined by BCA protein assay (Pierce). Proteins were resolved with SDS-PAGE utilizing 4-15% Mini-PROTEAN TGX Precast Gels and transferred to Trans-Blot Turbo Transfer Packs with a 0.2-μm pore-size nitrocellulose membrane. The SDS-PAGE running buffer, 4-15% Mini-PROTEAN TGX Precast Gels, Trans-Blot Turbo Transfer Packs with a 0.2-μm pore-size nitrocellulose membrane was purchased from Biorad (Hercules, CA). Nitrocellulose membranes were blocked in 5% nonfat milk in 0.05% (v/v) Tween 20 (PBST) (Corning, Manassas, VA). Membranes were then incubated with primary antibodies p-gp130 Y814 (Evseenko lab, AbClonal), p-AKT (cat #4060, Cell Signaling), p-ERK 1/2 (cat #9106, Cell Signaling), p-Y416-SRC (cat #1246F, Novus Biologicals), p-gp130 (cat #1453R, Bioss USA) and p-NFκBp65 (cat #8242, Cell Signaling), and/or YAP1 (cat #4912, Cell Signaling). Histone H3 (cat #9515, Cell Signaling) was used as loading control. […] Quantification of blots was performed using ImageJ 1.44 followed by Prism9 for analysis.

Where [4] appears, read: topical on WT mouse wound, PWD 21.

As for `Cc1ccc(-c2csc(NC(=O)c3ccccn3)n2)cc1` [Peptide R805], the “scRNA-seq macrophage clusters of skin wounds” value in assay [1] (PWD 14) is listed as “higher expression of genes characteristic of pro-regenerative/anti-inflammatory macrophages”. Also, the “hair fiber length and number of hair follicles” value in assay [1] (topical on WT mouse wound) was “increase of hair fiber length and number of hair follicles”. In assay [1] (setting [4]), the “hair follicle neogenesis and dermal regeneration” value was “significant hair follicle neogenesis and dermal regeneration; also recorded: enhanced wound-induced hair neogenesis”; the “wound histology (thickness, contraction, collagen deposition)” value is “thicker, less contracted and shows less collagen deposition”. The “matrix degeneration: levels of cleaved ACAN and COL2 neoepitopes” value in assay [2] was “able to decrease; also recorded: protective effect on OSM-induced cartilage degeneration in vitro”. The “pro-inflammatory signaling in diseased tissue” value in assay [3] was “markedly suppressed; also recorded: prevents pro-inflammatory signaling in diseased tissue”.
